Experimental data from patent US10893676B2, “1-acetyl-3-phenyl urea compound, and use thereof” (Sumitomo Chemical Company, Limited, priority 2016, dated 2021).

Key:
Arabidopsis thaliana = assay: Inhibitory activity on emergence of Arabidopsis thaliana (24 well plate, filter paper); assay type: in vivo; conditions: treatment concentration 8000 ppm, visually evaluated seven days after sowing, indices 0 (no effect) to 100 (no emergence)
Protocol: Inhibitory Activity on Emergence of Arabidopsis thaliana
Each well of 24 well microtiter plates was matted with a filter paper, and to the filter paper was added dropwise the solution in which the present compound or the compound B was dissolved in acetone. After air-drying, distilled water was added to each well so that the concentration of the present compound or the compound B in each well would be 8000 ppm. Next, seeds of Arabidopsis thaliana were sown into each well containing the present compound or the compound B, followed by putting a lid on each well, and cultivating Arabidopsis thaliana under the condition that a cultivation at 25° C. under lighting for 16 hours and a successive cultivation at 25° C. under dark for 8 hours were repeated. Seven days after sowing, the inhibitory activity on emergence of Arabidopsis thaliana was visually evaluated by classifying the activity into 0 to 100 indices (0: no effect to 100: no emergence).

Amaranthus retroflexus = assay: Post-emergence treatment test in a farmland (foliar spray, greenhouse pots); assay type: in vivo; conditions: application rate 4 kg/ha, sprayed at two-leaf stage, visually evaluated nine days after spraying, 11 stages from 0 (no effect) to 10 (complete kill)
Protocol: Nursery soil was put in a plastic pot measuring 8 cm in diameter and 6.5 cm in height, and in the pot, seeds of Amaranthus retroflexus were sown, and then covered with soil of about 0.5 cm thickness, and the plants were grown in a greenhouse. When the Amaranthus retroflexus plants were grown to two-leaf stage, a diluted solution containing either the present compound or a compound represented by formula (B) below (which is described in European Patent No. 1122244 B2) (hereinafter, referred to as Compound B) was uniformly sprayed on the whole Amaranthus retroflexus plants so that the application rates of the chemicals would be values indicated in Table 1.
Here the diluted solution was prepared by dissolving the present compound or the compound B in dimethylformamide solution containing 2% of Tween 20 (polyoxyethylene sorbitan fatty acid ester) (manufactured by MP Biomedicals Inc.) and then diluting the solution with deionized water.
The Amaranthus retroflexus plants that were sprayed with the diluted solution containing the present compound or the compound B were grown in a greenhouse. Nine days after spraying, the efficacy for controlling Amaranthus retroflexus plants was observed, thereby examining a herbicidal effect. Here the herbicidal effect was visually observed and evaluated by classifying the effect into 11 stages from 0 (no effect) to 10 (complete kill).

Structure (SMILES) | Inhibitory Activity on Emergence (Arabidopsis thaliana) | Herbicidal Effect (Amaranthus retroflexus) | Inhibitory Activity on Emergence (Arabidopsis thaliana; listed as present compound) | Herbicidal Effect (Amaranthus retroflexus; listed as present compound)
CCOC(=O)COc1ncccc1Oc1cc(NC(C)=O)c(F)cc1Cl [Compound B, N-[4-chloro-2-fluoro-5-{2-(ethoxycarbonyl)methoxy-3-pyridyloxy}phenyl]acetamide, reference compound] | 30 | 1 | – | –
CCOC(=O)COc1ncccc1Oc1cc(NC(=O)NC(C)=O)c(F)cc1Cl [Present compound] | 80 | 8 | higher inhibitory activity compared to the compound B | higher herbicidal effect compared to the compound B
